# Measurements as given in patent US20240191267A1, “Tropane Alkaloid Transporters and Methods of Making Tropane Alkaloids Using the Same” (priority 2021, published 2024).
# Several values for one entry are separate records, joined by “and”; a condition that tells them apart may be missing. Equal entries are not always repeated.
# Key:
# [1] = biological target: T1, AbUGT (UDP-glucosyltransferase 84A27) (Atropa belladonna, UniProt A0A3B6XRM0); experiment: Conversion of fed phenylpropanoids to glucosides by yeast expressing AbUGT; type: cell-based; details: AbUGT from low-copy plasmid in CSY1251; 500 μM substrate, 72 h, selective media
# T1 construct: expressed in transfected cells; host or cells: Saccharomyces cerevisiae CSY1251 (tropine-producing, CEN.PK2-derived), low-copy plasmid
# T1 sequence (A0A3B6XRM0 1-490): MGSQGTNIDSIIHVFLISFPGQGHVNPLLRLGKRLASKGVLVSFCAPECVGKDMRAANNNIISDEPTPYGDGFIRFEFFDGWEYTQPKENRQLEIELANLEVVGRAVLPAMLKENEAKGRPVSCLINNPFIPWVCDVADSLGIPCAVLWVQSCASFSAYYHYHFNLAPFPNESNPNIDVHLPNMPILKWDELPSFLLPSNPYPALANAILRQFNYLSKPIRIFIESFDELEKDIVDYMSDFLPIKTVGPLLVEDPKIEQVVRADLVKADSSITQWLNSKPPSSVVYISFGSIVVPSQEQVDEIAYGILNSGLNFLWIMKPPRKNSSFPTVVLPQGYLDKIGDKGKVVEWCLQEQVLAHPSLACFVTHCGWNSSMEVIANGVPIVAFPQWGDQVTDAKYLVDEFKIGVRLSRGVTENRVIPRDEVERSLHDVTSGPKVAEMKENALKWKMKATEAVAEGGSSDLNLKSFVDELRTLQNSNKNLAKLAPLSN
# Description: (B) Heatmap of percent conversion of fed phenylpropanoids to glucosides by yeast engineered for UGT84A27 expression. UGT84A27 orthologs or a BFP negative control were expressed from low-copy plasmids in CSY1251. Transformed cells were cultured in selective media supplemented with 500 μM PLA, CA, or FA for 72 h prior to LC-MS/MS analysis. Data represent the mean of n=3 biologically independent samples ±standard deviation.
# [2] = test system: UGT84A27 orthologs (AbUGT, BsUGT, DmUGT); type: cell-based, Atropa belladonna, Brugmansia sanguinea, D. metel; details: all three UGT orthologs, low-copy plasmids in CSY1251; 500 μM substrate, 72 h
# Description: FIG. 33 illustrates the substrate specificity of UDP-glucosyltransferase 84A27 (UGT84A27) orthologs from TA-producing Solanaceae expressed in engineered yeast. […] (A) Phenylpropanoids tested as glucose (Glu) acceptors for UGT84A27 in engineered yeast. […] (B) Heatmap of percent conversion of fed phenylpropanoids to glucosides by yeast engineered for UGT84A27 expression. UGT84A27 orthologs or a BFP negative control were expressed from low-copy plasmids in CSY1251. Transformed cells were cultured in selective media supplemented with 500 μM PLA, CA, or FA for 72 h prior to LC-MS/MS analysis. Data represent the mean of n=3 biologically independent samples ±standard deviation.
# [3] = test system: AbUGT84A27 active site mutants; experiment: Conversion of fed phenylpropanoids to glucosides by yeast expressing AbUGT active site mutants; type: cell-based, Atropa belladonna; details: F130Y, L205F, I292Q point mutants of AbUGT in CSY1251; 500 μM substrate, 72 h
# Description: FIG. 36 illustrates the substrate specificity of AbUGT84A27 active site mutants. […] AbUGT wild-type, active site mutants, or a BFP negative control were expressed from low-copy plasmids in CSY1251. Transformed cells were cultured in selective media supplemented with 500 μM PLA, CA, or FA for 72 h prior to LC-MS/MS analysis. Data represent the mean of n=3 biologically independent samples ±standard deviation.
# 6.1) As wild-type yeast produce only trace levels of PLA, production of this TA precursor must be increased to permit sufficient accumulation of downstream TAs. To improve PLA production, heterologous phenylpyruvate reductases (PPRs) may be expressed in the engineered host cells. PPR orthologs from E. coli, Lactobacillus, A. belladonna, and Wickerhamia fluorescens, as well as lactate dehydrogenases (LDHs) from Bacillus and Lactobacillus with reported activity on 3-phenylpyruvate (Table 1) were screened for activity in yeast by expressing each enzyme from a low-copy plasmid in CSY1251 and measuring PLA production by LC-MS/MS after 72 h of growth in selective media. […] As such, WfPPR was selected for integration into CSY1251 to make strain CSY1287. […] 6.4.2.1) Extra copies of PGM2 and UGP1 were expressed from low-copy plasmids in CSY1288 and PLA glucoside production was measured following 72 h of growth in selective media. […]
# Strain AD1-8 = details: selective media
# Excerpt: (§1) Solid lines and shaded/hatched bars respectively indicate mean and standard deviation of n=3 biologically independent samples.
# (§2) Heatmap values were extracted from mean growth curves in FIG. 80.
# (§3) Yeast toxicity assays and growth curves. Candidate transporters for use in non-plant cells for the purpose of enhancing or modulating metabolite localization may be characterized in any suitable strain of the non-plant organism of interest. […] An example protocol for the characterization of TA transporters in yeast is provided as follows. […] Strain AD1-8 is transformed as described earlier with a low-copy plasmid harboring a constitutively expressed transporter candidate or blue fluorescent protein as negative control and a suitable auxotrophic marker, such as URA3, LEU2, TRP1, or […]. Transformants are inoculated into 1 mL of selective YNB-G media and grown overnight (˜14-18 h) at 30° C. and 460 rpm. […] Culture densities (OD600) are then measured every 30 min for 48 h in a suitable plate reader, such as a SpectraMax i3 plate reader (Molecular Devices), with chamber temperature 30° C. and orbital shaking every 30 min. […]
# AbPUP1 = experiment: Yeast toxicity assay and growth curves, AD1-8 expressing AbPUP1
# Excerpt: as §1, §2, §1, §1, §3
# AbLP1 = experiment: Yeast toxicity assay and growth curves, AD1-8 expressing AbLP1
# Excerpt: as §1, §2, §1, §1, §3
structure (smiles),measurement,setting,value
"O=C(O)[C@H](O)Cc1ccccc1 [PLA, (D)-3-phenyllactic acid]",percent conversion of fed phenylpropanoid to glucoside,[1],< 3% and 2.7%
same,percent conversion of fed phenylpropanoid to glucoside,[2],< 3%
same,percent conversion of fed phenylpropanoid to glucoside,[3],< 3%
"O=C(O)/C=C/c1ccccc1 [cinnamic acid, trans-cinnamic acid]",percent conversion of fed phenylpropanoid to glucoside,[1],~60%
CN1[C@@H]2CC[C@H]1CC(OC(=O)[C@H](O)Cc1ccccc1)C2 (stereo partly shown) [littorine],"θHM, ratio of time for half-maximal OD600 at 20 mM relative to at 0 mM","Strain AD1-8; AD1-8 expressing BFP control from low-copy plasmid, 0-20 mM alkaloid",~1.0
same,"θHM, ratio of time for half-maximal OD600 at 20 mM relative to at 0 mM","AbPUP1; AD1-8 expressing AbPUP1 from low-copy plasmid, selective media, 0-20 mM alkaloid",~1.3
same,"θHM, ratio of time for half-maximal OD600 at 20 mM relative to at 0 mM","AbLP1; AD1-8 expressing AbLP1 from low-copy plasmid, selective media, 0-20 mM alkaloid",~1.1
CN1[C@@H]2CC[C@H]1C[C@@H](O)C2 [tropine],growth of AD1-8 at tested concentrations higher than 1 mM,Strain AD1-8; concentrations above 1 mM,severely retarded the growth
same,sensitivity to alkaloid conferred by transporter expression,"AbPUP1; AD1-8 expressing AbPUP1, tropine only at 1 mM",not
same,sensitivity to alkaloid conferred by transporter expression,"AbLP1; AD1-8 expressing AbLP1, tropine only at 1 mM",not
